Experimental data reported in patent US9713591B2, “Composition of matter comprising liposomes embedded in a polymeric matrix and methods of using same” (Yissum Research Development Company of the Hebrew …, priority 2008, dated 2017).
Values joined by “and” are separate entries in the source; they are usually repeats but may differ in a detail not shown here. Identical values can stand only once. Counter-ions that a name gives are not always drawn.

Experiments:
male Swiss-Webster mice [1] = settings: previously determined (Grant et al. 2004, U.S. Pat. No. 6,162,462); cited from earlier work
male Swiss-Webster mice [2] = test: Analgesic efficacy in mouse model: electrical stimulation of abdominal skin, vocalization threshold, analgesia score and duration; assay type: in vivo; design: key to analgesia score, 15 min / analgesia score, 30 min / analgesia score, 45 min / analgesia score, 60 min / analgesia score, 75 min / analgesia score, 90 min / analgesia score, 105 min / analgesia score, 120 min / analgesia score, 135 min: 1 = analgesia; 0 = no analgesia; 10 = partial analgesia; key to analgesia score 150′ / analgesia score 5′ / analgesia score 30′ / analgesia score 60′ / analgesia score 75′ / analgesia score 90′ / analgesia score 105′ / analgesia score 120′ / analgesia score 135′: If the anesthesia was complete the numeric value given was 1.0; when analgesia was partial (incomplete) it received the numeric value of 10.0 in the Table 1 and in other Tables a score of 0.5; for no anesthesia the numeric score was 0
Text: Analgesic efficacy in male Swiss Webster mouse model: Testing for analgesia was done by electrical stimulation of mice skin as described elsewhere (G. J. Grant et al, Pharmaceutical Research, 18, no 3, 336-343, 2001). Pain as electrical stimulation at the desired intensity was inflicted to the skin of shaved mice abdomen. The current generator (model S48, Grass Instruments (W. Warwick, R.I. USA) was used. Mice (male Swiss-Webster, 26±3 gr (n=7 per group) were used. The mice were shaved the hair overlying the abdomen and tested prior to injection to determine the Individual vocalization threshold of each mice. Than the mice were injected with (0.3-0.4 ml of one of the following: free bupivacaine, or LMVV-BUP or various LMVV entrapped in Ca-alginate or chitosan-oxalate cross linked hydrogels through 30G needle. The analgesia duration was than followed as specified in the experiment itself. All experiments were approved and ratified by the HUJI ethic committee.
Analysis of the in vivo mice analgesia: A numerical score to the spreadsheet was introduced for the evaluation of the analgesic effect of various liposome preparations performance in vivo: For each time period (e.g. 4 hrs, 8 hrs etc) a numeric value to each mouse in the experiment was given. If the anesthesia was complete the numeric value given was 1.0; when analgesia was partial (incomplete) it received the numeric value of 10.0 in the Table 1 and in other Tables a score of 0.5 and for no anesthesia the numeric score was 0. The mean for each subgroup was calculated separately (i.e. 1% 300 μl, 2%[…]).
Testing for analgesia was done by electrical stimulation of the skin directly overlying the abdomen at the site of injection using a current generator (model S48, Grass Instruments) as described in Grant et al 2001. (G. J. Grant et al, pharmaceutical research, vol 18, no 3, 336-343, 2001), and in Methods above.
Mice (male Swiss-Webster 26±3 gr) were tested prior to injection to determine the vocalization threshold than were injected with liposomal BUP or free BUP than followed by determination of analgesia duration (The duration of the main in vivo screening study was 2 days and started after a preliminary study using two different injection volumes of formulation #4 (referred to as the PILOT in Table 9A) was performed. […]
Testing for analgesia was performed by electrical stimulation of mice skin as described elsewhere (G. J. Grant et al, Pharmaceutical Research, 18, no 3, 336-343, 2001). Pain by electrical stimulation at the desired intensity was applied to the skin of shaved mice abdomen. The current generator (model S48, Grass Instruments (W. Warwick, R.I. USA) was used. Mice (male Swiss-Webster, 26±3 gr (n=8 per group) were used. The mice were shaved the hair overlying the abdomen and tested prior to injection to determine the Individual vocalization threshold of each mice. Than the mice were injected through 30G needle with 0.25 ml of one of the following formulation: • 1—Alginate beads containing LMVV-BUP (010609), were stored at 4 c for 2 months in 0.5% bup, PH=5.5 (see B3). The external solution of the beads were removed before injection without washing them. • 2—Alginate beads containing LMVV-BUP (010609), were stored at 4 c for 2 months in 2% bup, PH=5.5 (see B3). The external solution of the beads were removed and the beads washed (2.5 ml saline×5) before injection. • 3—Alginate beads containing LMVV-BUP (010609), were stored at 4 c for 2 months in 1% bup, PH=5.5 (see B3). The external solution of the beads were removed before injection without washing them. • 4—Alginate beads containing LMVV-BUP (010609), were stored at 4 c for 2 months in saline, PH=5.5 (see B3). The external solution of the beads were removed before injection without washing them. • 5—LMVV-BUP (010609) were stored at 4 c for 2 months in saline PH=5.5. • 6—BLANK: Aginate beads containing LMVV without bup, were stored at 4 c for 2 months in saline PH=5.5. […]

[3] = cited from earlier work
[4] = Free (non liposomal) and total bupivacaine determination by HPLC (% free BUP in the preparation); assay type: physicochemical; settings: Example 2 samples
Experimental: Bupivacaine determination: free (non liposomal) or total (liposomal plus free) concentration of bupivacaine was measured by HPLC (Grant et al Parm. Res., 2001 18, N3, 336-343; Anesthesiology, 2004, 101, 133-137).
Drug/lipid ratio determination for hydrogel beads: The washed beads were injected through a 25G×⅝″ (0.5 mm×16 mm) syringe needle to have homogenous dispersion and were diluted ×10 with saline: • 50 μl and 100 μl used for PL. determination. • 100 μl centrifuged 10′ 2000 g at 4° C. and the supernatant diluted ×10 with isopropanol (IPA) to determine free bupivacaine. • 100 or 200 μl heated in boiling water, than centrifuged 10′ at 2000 g. The supernatant was diluted ×10 with IPA to determine total bupivacaine by HPLC.
All samples for bupivacaine determination were centrifuged for 2 min. at 5000 g (using Eppendof centrifuge) after dilution in IPA. The upper phase was removed and analyzed by HPLC.
All liposomal formulations were analyzed for free non liposomal BUP and total BUP before the in vivo experiment followed by their concentration to reach the level of 2% (w/w) BUP (for liposome formulations #1, 2, 3, 5, 6, 8) and to 1% (w/w BUP for liposome formulations #4 & 7). BUP was loaded into the liposomes either by active loading (CA or AS gradient) or by passive loading as described in Table 8.
Free Bup (Non Liposomal Bup) Determination: […]

[5] = Bup Conc 0.25%, Volume 150 ul, 0.375 mg Bup, individual mice
[6] = Bup Conc 0.25%, Volume 150 ul, 0.375 mg Bup, individual mice, hydrochloride
[7] = Bup Conc 0.25%, Volume 300 ul, 0.75 mg Bup, individual mice
[8] = Bup Conc 0.25%, Volume 300 ul, 0.75 mg Bup, individual mice, hydrochloride
[9] = Bup Conc 0.50%, Volume 150 ul, 0.75 mg Bup, individual mice
[10] = Bup Conc 0.50%, Volume 150 ul, 0.75 mg Bup, individual mice, hydrochloride

Compound: CCCCN1CCCCC1C(=O)Nc1c(C)cccc1C (stereo not shown) [Standard Bupivacaine, Bupivacaine hydrochloride]
- duration of analgesic effect post injection (male Swiss-Webster mice [1]): approximately 75 minutes
- analgesia score, 15 min (male Swiss-Webster mice [2]; [5]): 1
- analgesia score, 30 min (male Swiss-Webster mice [2]; [5]): 1
- analgesia score, 45 min (male Swiss-Webster mice [2]; [5]): 1
- analgesia score, 90 min (male Swiss-Webster mice [2]; [5]): 0
- analgesia score, 60 min (male Swiss-Webster mice [2]; [6]): 0 (5×) and 1 (2×) and 10
- analgesia score, 75 min (male Swiss-Webster mice [2]; [6]): 0 (7×) and 10
- analgesia score, 15 min (male Swiss-Webster mice [2]; [7]): 1
- analgesia score, 30 min (male Swiss-Webster mice [2]; [7]): 1
- analgesia score, 45 min (male Swiss-Webster mice [2]; [7]): 1
- analgesia score, 60 min (male Swiss-Webster mice [2]; [7]): 1
- analgesia score, 135 min (male Swiss-Webster mice [2]; [7]): 0
- analgesia score, 75 min (male Swiss-Webster mice [2]; [8]): 0 and 1 (7×)
- analgesia score, 90 min (male Swiss-Webster mice [2]; [8]): 0 and 1 (5×) and 10 (2×)
- analgesia score, 105 min (male Swiss-Webster mice [2]; [8]): 0 (5×) and 10 and 1 (2×)
- analgesia score, 120 min (male Swiss-Webster mice [2]; [8]): 0 (7×) and 10
- analgesia score, 15 min (male Swiss-Webster mice [2]; [9]): 1
- analgesia score, 30 min (male Swiss-Webster mice [2]; [9]): 1
- analgesia score, 45 min (male Swiss-Webster mice [2]; [9]): 1
- analgesia score, 105 min (male Swiss-Webster mice [2]; [9]): 0
- analgesia score, 60 min (male Swiss-Webster mice [2]; [10]): 1 (7×) and 10
- analgesia score, 75 min (male Swiss-Webster mice [2]; [10]): 1 (6×) and 0 and 10
- analgesia score, 90 min (male Swiss-Webster mice [2]; [10]): 0 (4×) and 10 (2×) and 1 (2×)
- analgesia score, 15 min (male Swiss-Webster mice [2]; per mouse, free BUP 0.25%, 150 ul, 0.375 mg Bup, 15 min): 1
- analgesia score, 30 min (male Swiss-Webster mice [2]; per mouse, free BUP 0.25%, 150 ul, 0.375 mg Bup, 30 min): 1
- analgesia score, 45 min (male Swiss-Webster mice [2]; per mouse, free BUP 0.25%, 150 ul, 0.375 mg Bup, 45 min): 1
- analgesia score, 60 min (male Swiss-Webster mice [2]; per mouse, free BUP 0.25%, 150 ul, 0.375 mg Bup, 60 min, hydrochloride): 0 (5×) and 1 (2×) and 10
- analgesia score, 75 min (male Swiss-Webster mice [2]; per mouse, free BUP 0.25%, 150 ul, 0.375 mg Bup, 75 min, hydrochloride): 0 (7×) and 10
- analgesia score, 90 min (male Swiss-Webster mice [2]; per mouse, free BUP 0.25%, 150 ul, 0.375 mg Bup, 90 min): 0
- analgesia score, 15 min (male Swiss-Webster mice [2]; per mouse, free BUP 0.25%, 300 ul, 0.75 mg Bup, 15 min): 1
- analgesia score, 30 min (male Swiss-Webster mice [2]; per mouse, free BUP 0.25%, 300 ul, 0.75 mg Bup, 30 min): 1
- analgesia score, 45 min (male Swiss-Webster mice [2]; per mouse, free BUP 0.25%, 300 ul, 0.75 mg Bup, 45 min): 1
- analgesia score, 60 min (male Swiss-Webster mice [2]; per mouse, free BUP 0.25%, 300 ul, 0.75 mg Bup, 60 min): 1
- analgesia score, 75 min (male Swiss-Webster mice [2]; per mouse, free BUP 0.25%, 300 ul, 0.75 mg Bup, 75 min, hydrochloride): 0 and 1 (7×)
- analgesia score, 90 min (male Swiss-Webster mice [2]; per mouse, free BUP 0.25%, 300 ul, 0.75 mg Bup, 90 min, hydrochloride): 0 and 1 (5×) and 10 (2×)
- analgesia score, 105 min (male Swiss-Webster mice [2]; per mouse, free BUP 0.25%, 300 ul, 0.75 mg Bup, 105 min, hydrochloride): 0 (5×) and 10 and 1 (2×)
- analgesia score, 120 min (male Swiss-Webster mice [2]; per mouse, free BUP 0.25%, 300 ul, 0.75 mg Bup, 120 min, hydrochloride): 0 (7×) and 10
- analgesia score, 135 min (male Swiss-Webster mice [2]; per mouse, free BUP 0.25%, 300 ul, 0.75 mg Bup, 135 min): 0
- analgesia score, 15 min (male Swiss-Webster mice [2]; per mouse, free BUP 0.50%, 150 ul, 0.75 mg Bup, 15 min): 1
- analgesia score, 30 min (male Swiss-Webster mice [2]; per mouse, free BUP 0.50%, 150 ul, 0.75 mg Bup, 30 min): 1
- analgesia score, 45 min (male Swiss-Webster mice [2]; per mouse, free BUP 0.50%, 150 ul, 0.75 mg Bup, 45 min): 1
- analgesia score, 60 min (male Swiss-Webster mice [2]; per mouse, free BUP 0.50%, 150 ul, 0.75 mg Bup, 60 min, hydrochloride): 1 (7×) and 10
- analgesia score, 75 min (male Swiss-Webster mice [2]; per mouse, free BUP 0.50%, 150 ul, 0.75 mg Bup, 75 min, hydrochloride): 1 (6×) and 0 and 10
- analgesia score, 90 min (male Swiss-Webster mice [2]; per mouse, free BUP 0.50%, 150 ul, 0.75 mg Bup, 90 min, hydrochloride): 0 (4×) and 10 (2×) and 1 (2×)
- analgesia score, 105 min (male Swiss-Webster mice [2]; per mouse, free BUP 0.50%, 150 ul, 0.75 mg Bup, 105 min): 0
- solubility limit of bupivacaine at pH 5.5 ([3]; 25° C., pH 5.5): below 2.9%
- solubility of bupivacaine 25° C. at pH 2.0 ([3]; pH 2.0): 7.5%
- mass solubility of bupivacaine at 25° C. in pH 5 ([3]; pH 5): 2.9%
- mass solubility of bupivacaine at 25° C. in pH 6 ([3]; pH 6): 0.55%

Compound: CCCCN1CCCCC1C(=O)Nc1c(C)cccc1C (stereo not shown) [compound 9]
- Free bup concentration(%) after injection through G31 syringe needle ([4]; analyzed after the experiment was finished): 0.25%
- Free bup concentration(%) after injection through G31 syringe needle ([4]; analyzed before starting the experiment): 0.25%
- analgesia duration, comparison of Example 2 formulations (male Swiss-Webster mice [2]; Example 2, mice): shortest analgesia duration
- analgesia score 5′ (male Swiss-Webster mice [2]; Example 2 group 9, per mouse, 0.25% bup 300 ul, 5 min): 1
- analgesia score 30′ (male Swiss-Webster mice [2]; Example 2 group 9, per mouse, 0.25% bup 300 ul, 30 min): 1
- analgesia score 60′ (male Swiss-Webster mice [2]; Example 2 group 9, per mouse, 0.25% bup 300 ul, 60 min): 1
- analgesia score 75′ (male Swiss-Webster mice [2]; Example 2 group 9, per mouse, 0.25% bup 300 ul, 75 min, listed as standard free bupivacaine): 1 (3×) and 0 (2×)
- analgesia score 90′ (male Swiss-Webster mice [2]; Example 2 group 9, per mouse, 0.25% bup 300 ul, 90 min, listed as standard free bupivacaine): 1 (3×) and 0 (2×)
- analgesia score 105′ (male Swiss-Webster mice [2]; Example 2 group 9, per mouse, 0.25% bup 300 ul, 105 min, listed as standard free bupivacaine): 1 and 0 (2×)
- analgesia score 120′ (male Swiss-Webster mice [2]; Example 2 group 9, per mouse, 0.25% bup 300 ul, 120 min, listed as standard free bupivacaine): 0.5 and 0 (2×)
- analgesia score 135′ (male Swiss-Webster mice [2]; Example 2 group 9, per mouse, 0.25% bup 300 ul, 135 min): 0
- analgesia score 150′ (male Swiss-Webster mice [2]; Example 2 group 9, per mouse, 0.25% bup 300 ul, 150 min): 0
